Results reported in patent US11753445B2, “Therapeutic peptides” (COHBAR, INC., priority 2016, dated 2023).
Peptide text beside a SMILES is read from it.

Assays:
3T3-L1 Adipocytes = test: Free fatty acid levels in cultured mouse 3T3-L1 adipocytes, isoproterenol stimulated (Example 2); format: cell-based; settings: test peptides 25 μM; isoproterenol 1 nM
Protocol: Mouse 3T3-L1 cells were seeded at a density between 1,000-20,000 cells per well on 96-well, 48-well, or 24-well plates in Pre-adipocyte Medium (Zen-Bio, Durham, N.C.) and grown to confluence at 37° C. in a humidified atmosphere of 5% CO2/95% air. Two days after confluence, cells were placed in Adipocyte Differentiation Medium (Zen-Bio, Durham, N.C.) and cultured for three additional days at 37° C. in a humidified atmosphere of 5% CO2/95% air. The culture media was then replaced with Adipocyte Maintenance Medium (Zen-Bio) and the cells were maintained for an additional 9-14 days at 37° C. in a humidified atmosphere of 5% CO2/95% air with partial medium replacement every other day. Following 12-17 days of differentiation, test peptides were added at a final concentration of 25 μM and incubated for 18-20 hours in Adipocyte Maintenance Medium at 37° C. in a humidified atmosphere of 5% CO2/95%. After 18-20 hours, the media was exchanged with fresh Adipocyte Maintenance Medium containing test peptides and incubated for 1 h at 37° C. in a humidified atmosphere of 5% CO2/95%. After 1 h media was exchanged with Assay Buffer (Zen-Bio) containing isoproterenol (1 nM) (added to all samples except untreated controls) and the test peptides. Cells were incubated for a further 3 hours at 37° C. in a humidified atmosphere of 5% CO2/95%. Free fatty acid concentrations in the media were determined using a Free Fatty Acid Assay Kit (Zen-Bio) according to the manufacturer's instructions using a plate reader (540 nm).
Absorbance values were corrected for untreated background and expressed relative to isoproterenol treated cells. Treatment with isoproterenol (1 nM) alone was used as the free fatty acid level stimulatory control. The relative standard deviation of the isoproterenol control was <10%. […] Free fatty acid levels for insulin (100 nM) treatment were <5% of the isoproterenol control value.

[1] = Stability in mouse plasma, peptides 10 uM (Example 15); format: in vitro ADME; settings: mouse plasma 37° C., peptide 10 uM; for remaining at 0.25 h, 10 uM / remaining at 0.5 h, 10 uM / remaining at 1 h, 10 uM / remaining at 2 h, 10 uM / remaining at 3 h, 10 uM: pooled mouse plasma; for remaining at 0.25 h, 10 uM: 15 min, read-out: % Remaining at Each Time Point: 15 min; for remaining at 0.5 h, 10 uM: 30 min, read-out: % Remaining at Each Time Point: 30 min; for remaining at 1 h, 10 uM: 60 min, read-out: % Remaining at Each Time Point: 60 min; for remaining at 2 h, 10 uM: 120 min, read-out: % Remaining at Each Time Point: 120 min; for remaining at 3 h, 10 uM: 180 min, read-out: % Remaining at Each Time Point: 180 min
Protocol: Peptides (10 uM) were incubated in pooled mouse plasma at 37° C. and samples were removed and immediately analyzed for the concentration of intact peptide by LC/MS/MS over the course of 3 hours. The percent of peptide remaining in plasma at each time point was calculated relative to the initial peak area (Table 13).

Ac-MRWQEMGYIFYPRKLK-NH2 [compound 130]
Free Fatty Acid Levels in 3T3-L1 Adipocytes Expressed as a Percent of Isoproterenol Control: Percent of Control Value (3T3-L1 Adipocytes): 85.4%

Ac-LRWQEMGYIFYPRKR-NH2 [compound 116]
Free Fatty Acid Levels in 3T3-L1 Adipocytes Expressed as a Percent of Isoproterenol Control: Percent of Control Value (3T3-L1 Adipocytes): 101.8%

Ac-LRWQEMGYIFYPRLKR-NH2 [compound 110]
Free Fatty Acid Levels in 3T3-L1 Adipocytes Expressed as a Percent of Isoproterenol Control: Percent of Control Value (3T3-L1 Adipocytes): 82.6%

H-MRWQEMGYIFYPRELR-OH [compound 180]
Free Fatty Acid Levels in 3T3-L1 Adipocytes Expressed as a Percent of Isoproterenol Control: Percent of Control Value (3T3-L1 Adipocytes): 47.0%

Ac-MRWQEMGYIEYPRKLR-NH2 [compound 191]
Free Fatty Acid Levels in 3T3-L1 Adipocytes Expressed as a Percent of Isoproterenol Control: Percent of Control Value (3T3-L1 Adipocytes): 81.7%

CC[C@H](C)[C@@H]1NC(=O)[C@H](Cc2ccc(O)cc2)NC(=O)CNC(=O)[C@@H](NC(=O)[C@H](CCC(=O)O)NC(=O)[C@H](CCC(N)=O)NC(=O)[C@H](Cc2c[nH]c3ccccc23)NC(=O)[C@H](CCCNC(=N)N)NC(=O)[C@H](CCSC)NC(C)=O)CCC(=O)NCCCC[C@@H](C(=O)N[C@@H](CCCNC(=N)N)C(=O)N[C@@H](CCCCN)C(=O)N[C@@H](CC(C)C)C(=O)N[C@@H](CCCNC(=N)N)C(N)=O)NC(=O)[C@H](Cc2ccc(O)cc2)NC(=O)[C@H](Cc2ccccc2)NC1=O [compound 226] (HELM PEPTIDE1{[ac].M.R.W.Q.E.E.G.Y.I.F.Y.K.R.K.L.R.[am]}$PEPTIDE1,PEPTIDE1,7:R3-13:R3$$$V2.0)
Free Fatty Acid Levels in 3T3-L1 Adipocytes Expressed as a Percent of Isoproterenol Control: Percent of Control Value (3T3-L1 Adipocytes): 79.8%

Ac-MEWQEMGYIFYPRKLR-NH2 [compound 184]
Free Fatty Acid Levels in 3T3-L1 Adipocytes Expressed as a Percent of Isoproterenol Control: Percent of Control Value (3T3-L1 Adipocytes): 97.1%

H-RWQEEQYIFYPR-OH [compound 263]
% Remaining at Each Time Point: 0 min [1]: 100% | remaining at 0.25 h, 10 uM [1]: 80.7% | remaining at 0.5 h, 10 uM [1]: 68.6% | remaining at 1 h, 10 uM [1]: 46.9% | remaining at 2 h, 10 uM [1]: 40.5% | remaining at 3 h, 10 uM [1]: 30.8%

CC[C@H](C)[C@H](NC(=O)[C@H](Cc1ccc(O)cc1)NC(=O)CNC(=O)[C@H](CCSC)NC(=O)[C@H](CCC(=O)O)NC(=O)[C@H](CCC(N)=O)NC(=O)[C@H](Cc1c[nH]c2ccccc12)NC(=O)[C@H](CCCNC(=N)N)NC(=O)[C@H](CCSC)NC(C)=O)C(=O)N[C@@H](Cc1ccccc1)C(=O)N[C@@H](Cc1ccc(O)cc1)C(=O)N1CCC[C@H]1C(=O)N[C@H](C)C(=O)N[C@@H](CCCCN)C(=O)N[C@@H](CC(C)C)C(=O)N[C@@H](CCCNC(=N)N)C(N)=O [compound 164] (HELM PEPTIDE1{[ac].M.R.W.Q.E.M.G.Y.I.F.Y.P.[dA].K.L.R.[am]}$$$$V2.0)
Free Fatty Acid Levels in 3T3-L1 Adipocytes Expressed as a Percent of Isoproterenol Control: Percent of Control Value (3T3-L1 Adipocytes): 77.2%

H-ERWQEAGYIAYPRKLA-OH [compound 239]
Free Fatty Acid Levels in 3T3-L1 Adipocytes Expressed as a Percent of Isoproterenol Control: Percent of Control Value (3T3-L1 Adipocytes): 66.6%

Ac-MRWQEMGYIFY-NH2 [compound 63]
Free Fatty Acid Levels in 3T3-L1 Adipocytes Expressed as a Percent of Isoproterenol Control: Percent of Control Value (3T3-L1 Adipocytes): 70.5%

CC[C@H](C)[C@H](NC(=O)[C@H](Cc1ccc(O)cc1)NC(=O)CNC(=O)[C@H](CCSC)NC(=O)[C@@H](C)NC(=O)[C@H](CCC(N)=O)NC(=O)[C@H](Cc1c[nH]c2ccccc12)NC(=O)[C@H](CCCNC(=N)N)NC(=O)[C@H](CCSC)NC(C)=O)C(=O)N[C@@H](Cc1ccccc1)C(=O)N[C@@H](Cc1ccc(O)cc1)C(=O)N1CCC[C@H]1C(=O)N[C@@H](CCCNC(=N)N)C(=O)N[C@@H](CCCCN)C(=O)N[C@@H](CC(C)C)C(=O)N[C@@H](CCCNC(=N)N)C(N)=O [compound 156] (HELM PEPTIDE1{[ac].M.R.W.Q.[dA].M.G.Y.I.F.Y.P.R.K.L.R.[am]}$$$$V2.0)
Free Fatty Acid Levels in 3T3-L1 Adipocytes Expressed as a Percent of Isoproterenol Control: Percent of Control Value (3T3-L1 Adipocytes): 94.7%

CC[C@H](C)[C@H](NC(=O)[C@H](Cc1ccc(O)cc1)NC(=O)CNC(=O)[C@H](C)NC(=O)[C@H](CCC(=O)O)NC(=O)[C@H](CCC(N)=O)NC(=O)[C@H](Cc1c[nH]c2ccccc12)NC(=O)[C@H](CCCNC(=N)N)NC(=O)[C@@H](C)N)C(=O)N[C@@H](C)C(=O)N[C@@H](CCC(=O)O)C(=O)N1CCC[C@H]1C(=O)N[C@@H](CCCNC(=N)N)C(=O)N[C@@H](CCCCN)C(=O)N[C@@H](CC(C)C)C(=O)N[C@H](C)C(=O)O [compound 246] (HELM PEPTIDE1{[dA].R.W.Q.E.A.G.Y.I.A.E.P.R.K.L.[dA]}$$$$V2.0)
Free Fatty Acid Levels in 3T3-L1 Adipocytes Expressed as a Percent of Isoproterenol Control: Percent of Control Value (3T3-L1 Adipocytes): 73.9%

Ac-MRWEEMGYIFYPRKLR-NH2 [compound 186]
Free Fatty Acid Levels in 3T3-L1 Adipocytes Expressed as a Percent of Isoproterenol Control: Percent of Control Value (3T3-L1 Adipocytes): 102.1%

Ac-MRWQEMGYIFYPAKLR-NH2 [compound 34]
Free Fatty Acid Levels in 3T3-L1 Adipocytes Expressed as a Percent of Isoproterenol Control: Percent of Control Value (3T3-L1 Adipocytes): 70.7%

CC[C@H](C)[C@H](NC(=O)[C@H](Cc1ccc(O)cc1)NC(=O)CNC(=O)[C@H](CCSC)NC(=O)[C@H](CCC(=O)O)NC(=O)[C@H](CCC(N)=O)NC(=O)[C@H](Cc1c[nH]c2ccccc12)NC(=O)[C@H](CCCNC(=N)N)NC(=O)[C@H](CCSC)NC(C)=O)C(=O)N[C@@H](Cc1ccccc1)C(=O)N[C@H](C)C(=O)N1CCC[C@H]1C(=O)N[C@@H](CCCNC(=N)N)C(=O)N[C@@H](CCCCN)C(=O)N[C@@H](CC(C)C)C(=O)N[C@@H](CCCNC(=N)N)C(N)=O [compound 162] (HELM PEPTIDE1{[ac].M.R.W.Q.E.M.G.Y.I.F.[dA].P.R.K.L.R.[am]}$$$$V2.0)
Free Fatty Acid Levels in 3T3-L1 Adipocytes Expressed as a Percent of Isoproterenol Control: Percent of Control Value (3T3-L1 Adipocytes): 82.4%

CC[C@H](C)[C@H](NC(=O)[C@H](Cc1ccc(O)cc1)NC(=O)CNC(=O)[C@@H](C)NC(=O)[C@H](CCC(=O)O)NC(=O)[C@H](CCC(N)=O)NC(=O)[C@H](Cc1c[nH]c2ccccc12)NC(=O)[C@H](CCCNC(=N)N)NC(=O)[C@@H](N)CCSC)C(=O)N[C@@H](Cc1ccccc1)C(=O)N[C@@H](Cc1ccc(O)cc1)C(=O)N1CCC[C@H]1C(=O)N[C@@H](CCCNC(=N)N)C(=O)N[C@@H](CCCCN)C(=O)N[C@@H](CC(C)C)C(=O)N[C@@H](CCCNC(=N)N)C(=O)O [compound 141] (HELM PEPTIDE1{M.R.W.Q.E.[dA].G.Y.I.F.Y.P.R.K.L.R}$$$$V2.0)
Free Fatty Acid Levels in 3T3-L1 Adipocytes Expressed as a Percent of Isoproterenol Control: Percent of Control Value (3T3-L1 Adipocytes): 56.9%

CC[C@H](C)[C@H](NC(=O)[C@H](Cc1ccc(O)cc1)NC(=O)CNC(=O)[C@H](CCSC)NC(=O)[C@H](CCC(=O)O)NC(=O)[C@H](CCC(N)=O)NC(=O)[C@H](Cc1c[nH]c2ccccc12)NC(=O)[C@H](CCCNC(=N)N)NC(=O)[C@H](CCSC)NC(C)=O)C(=O)N[C@@H](Cc1ccccc1)C(=O)N[C@@H](Cc1ccc(O)cc1)C(=O)N1CCC[C@H]1C(=O)N[C@@H](CCCNC(=N)N)C(=O)N[C@@H](CCCCN)C(=O)NC(CC)(CC)C(=O)N[C@@H](CCCNC(=N)N)C(=O)O [compound 199] (HELM PEPTIDE1{[ac].M.R.W.Q.E.M.G.Y.I.F.Y.P.R.K.[CCC(CC)(N[*:1])C(=O)[*:2]].R}$$$$V2.0)
Free Fatty Acid Levels in 3T3-L1 Adipocytes Expressed as a Percent of Isoproterenol Control: Percent of Control Value (3T3-L1 Adipocytes): 48.0%

H-RWQEMQYIFEPR-OH [compound 254]
% Remaining at Each Time Point: 0 min [1]: 100% | remaining at 0.25 h, 10 uM [1]: 52.4% | remaining at 0.5 h, 10 uM [1]: 33.3% | remaining at 1 h, 10 uM [1]: 30.3% | remaining at 2 h, 10 uM [1]: 24% | remaining at 3 h, 10 uM [1]: 18.1%

H-RWQEENYIFYPR-OH [compound 258]
% Remaining at Each Time Point: 0 min [1]: 100% | remaining at 0.25 h, 10 uM [1]: 63.2% | remaining at 0.5 h, 10 uM [1]: 53.5% | remaining at 1 h, 10 uM [1]: 36.3% | remaining at 2 h, 10 uM [1]: 30.3% | remaining at 3 h, 10 uM [1]: 21.7%

H-RWQEMQYIAYPR-OH [compound 255]
% Remaining at Each Time Point: 0 min [1]: 100% | remaining at 0.25 h, 10 uM [1]: 78.3% | remaining at 0.5 h, 10 uM [1]: 62.6% | remaining at 1 h, 10 uM [1]: 40.9% | remaining at 2 h, 10 uM [1]: 28.7% | remaining at 3 h, 10 uM [1]: 19.6%

H-RWQEENYIAEPR-OH [compound 261]
% Remaining at Each Time Point: 0 min [1]: 100% | remaining at 0.25 h, 10 uM [1]: 85% | remaining at 0.5 h, 10 uM [1]: 73.4% | remaining at 1 h, 10 uM [1]: 69.3% | remaining at 2 h, 10 uM [1]: 68.1% | remaining at 3 h, 10 uM [1]: 73.7%

H-RWQEENYIFEPR-OH [compound 259]
% Remaining at Each Time Point: 0 min [1]: 100% | remaining at 0.25 h, 10 uM [1]: 82.2% | remaining at 0.5 h, 10 uM [1]: 65.2% | remaining at 1 h, 10 uM [1]: 42.2% | remaining at 2 h, 10 uM [1]: 32.8% | remaining at 3 h, 10 uM [1]: 34.8%
